# Source: patent publication US20150315188A1, “COMPOUNDS AND METHODS FOR TREATMENT OF HYPERTENSION” (MEDIVATION TECHNOLOGIES, INC., priority 2012, published 2015)
# Columns and labels:
# Design in all cases: purchased Milipore (Millipore)
# [1] = biological target: T1, Human adrenergic α2B receptor (Homo sapiens, UniProt P18089); assay: Radioligand binding, adrenergic α2B (Protocol Group B); conditions: Protocol Group B; for Percentage inhibition of ligand binding, Adrenergic α2B (10 nM) / inhibition at 0.01 µM: 10 nM compound; for Percentage inhibition of ligand binding, Adrenergic α2B (10 nM): 0.01 µM; for Percentage inhibition of ligand binding, Adrenergic α2B (30 nM) / inhibition at 0.03 µM: 30 nM compound; for Percentage inhibition of ligand binding, Adrenergic α2B (30 nM): 0.03 µM; for Percentage inhibition of ligand binding, Adrenergic α2B (0.1 μM) / inhibition at 0.1 µM: 0.1 μM compound; for inhibition at 0.03 µM: read-out: Percentage inhibition of ligand binding, Adrenergic α2B (30 nM); for inhibition at 0.01 µM: read-out: Percentage inhibition of ligand binding, Adrenergic α2B (10 nM); for inhibition at 0.1 µM: read-out: Percentage inhibition of ligand binding, Adrenergic α2B (0.1 μM)
# T1 sequence (P18089 1-450): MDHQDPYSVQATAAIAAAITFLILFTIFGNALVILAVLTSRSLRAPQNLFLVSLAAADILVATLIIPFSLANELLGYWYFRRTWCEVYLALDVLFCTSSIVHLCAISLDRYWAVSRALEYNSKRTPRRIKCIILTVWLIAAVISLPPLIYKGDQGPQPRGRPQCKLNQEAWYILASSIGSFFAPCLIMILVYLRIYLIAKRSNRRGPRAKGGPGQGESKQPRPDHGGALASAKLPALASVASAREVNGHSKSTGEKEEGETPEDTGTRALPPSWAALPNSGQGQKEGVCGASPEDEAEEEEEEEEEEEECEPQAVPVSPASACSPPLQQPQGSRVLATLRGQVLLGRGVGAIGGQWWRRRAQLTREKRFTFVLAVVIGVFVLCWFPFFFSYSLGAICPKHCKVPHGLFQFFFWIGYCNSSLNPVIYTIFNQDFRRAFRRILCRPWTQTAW
# Method: To evaluate the activity of compounds in radioligand binding assays, Human adrenergic α2B receptor obtained from recombinant cell membrane from Milipore. Binding experiments were carried out in Tris-HCl buffer (50 mM Tris-HCl buffer, pH 7.4, 5 mM Mgcl2, 1 mM Cacl2, 0.2% BSA) as recommended by Milipore. […] Non-specific binding was estimated in the presence of 10 μM Rauwolscine. […] Compounds were screened at various concentrations, using 1% DMSO as vehicle. Biochemical assay results are presented as the percent Inhibition of specific binding in Table B1b, or estimated Ki values in Table B1c.
# [2] = biological target: T2, Human adrenergic α2A receptor (Homo sapiens, UniProt P08913); assay: Radioligand binding, adrenergic α2A (Protocol Group B); conditions: Protocol Group B; for Percentage inhibition of ligand binding, Adrenergic α2A (0.1 μM) / inhibition at 0.1 µM: 0.1 μM compound; for Percentage inhibition of ligand binding, Adrenergic α2A (0.3 μM) / inhibition at 0.3 µM: 0.3 μM compound; for inhibition at 0.1 µM: read-out: Percentage inhibition of ligand binding, Adrenergic α2A (0.1 μM); for inhibition at 0.3 µM: read-out: Percentage inhibition of ligand binding, Adrenergic α2A (0.3 μM)
# T2 sequence (P08913 1-465): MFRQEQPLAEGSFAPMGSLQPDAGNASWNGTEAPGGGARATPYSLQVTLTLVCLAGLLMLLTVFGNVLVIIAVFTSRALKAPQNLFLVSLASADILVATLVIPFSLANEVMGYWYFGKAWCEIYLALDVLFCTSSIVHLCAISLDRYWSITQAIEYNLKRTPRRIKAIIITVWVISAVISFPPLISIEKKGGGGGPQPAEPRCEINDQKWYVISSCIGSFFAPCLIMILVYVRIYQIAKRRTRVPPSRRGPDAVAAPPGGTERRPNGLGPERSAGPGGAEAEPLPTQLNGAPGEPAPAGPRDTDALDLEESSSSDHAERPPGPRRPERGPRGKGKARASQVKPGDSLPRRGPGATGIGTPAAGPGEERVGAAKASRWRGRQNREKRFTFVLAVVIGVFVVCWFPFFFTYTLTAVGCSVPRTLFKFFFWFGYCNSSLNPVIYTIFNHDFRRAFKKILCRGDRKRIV
# Method: To evaluate the activity of compounds in radioligand binding assays, Human adrenergic α2A receptor obtained from recombinant cell membrane from Milipore. Binding experiments were carried out in Tris-HCl buffer (50 mM Tris-HCl buffer, pH 7.4, 5 mM Mgcl2, 1 mM Cacl2, 0.2% BSA) as recommended by Milipore. Compounds were incubated with 2 nM [^3H]MK-912 for 60 min at 25° C. Non-specific binding was estimated in the presence of 10 μM Rauwolscine. Receptor proteins were harvested on 0.33% PEI(poly-ethylenemine) soaked GFC filter mat, the specifically bound [^3H]MK-912 were counted to determine total binding. Compounds were screened at various concentrations, using 1% DMSO as vehicle. percent inhibition of specific binding was determined. Biochemical assay results are presented as the percent Inhibition of specific binding in Table B1b, or estimated Ki values in Table B1c.
# [3] = biological target: T3, Human adrenergic α1B receptor (Homo sapiens, UniProt P35368); assay: Radioligand binding, adrenergic α1B (Protocol Group B); conditions: Protocol Group B; for Percentage inhibition of ligand binding, Adrenergic α1B (0.1 μM) / inhibition at 0.1 µM: 0.1 μM compound; for Percentage inhibition of ligand binding, Adrenergic α1B (0.3 μM) / inhibition at 0.3 µM: 0.3 μM compound; for inhibition at 0.1 µM: read-out: Percentage inhibition of ligand binding, Adrenergic α1B (0.1 μM); for inhibition at 0.3 µM: read-out: Percentage inhibition of ligand binding, Adrenergic α1B (0.3 μM)
# T3 sequence (P35368 1-520): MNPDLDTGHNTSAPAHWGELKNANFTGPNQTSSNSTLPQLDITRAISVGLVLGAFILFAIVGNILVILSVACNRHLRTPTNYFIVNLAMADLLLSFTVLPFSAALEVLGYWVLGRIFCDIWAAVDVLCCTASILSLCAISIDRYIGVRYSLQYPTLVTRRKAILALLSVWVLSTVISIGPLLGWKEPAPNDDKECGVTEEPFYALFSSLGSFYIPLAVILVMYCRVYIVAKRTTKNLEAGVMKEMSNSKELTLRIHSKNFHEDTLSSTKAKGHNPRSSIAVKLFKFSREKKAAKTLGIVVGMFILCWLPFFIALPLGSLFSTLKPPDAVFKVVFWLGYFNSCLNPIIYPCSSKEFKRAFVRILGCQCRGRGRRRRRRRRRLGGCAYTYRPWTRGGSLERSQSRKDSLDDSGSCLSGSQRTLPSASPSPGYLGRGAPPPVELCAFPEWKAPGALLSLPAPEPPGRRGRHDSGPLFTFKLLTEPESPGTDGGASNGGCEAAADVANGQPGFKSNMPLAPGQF
# Method: To evaluate the activity of compounds in radioligand binding assays, Human adrenergic α1B receptor obtained from recombinant cell membrane from Milipore. Binding experiments were carried out in Tris-HCl buffer (50 mM Tris-HCl buffer, pH 7.4, 10 mM Mgcl2, 1 mM EDTA) as recommended by Milipore. Compounds were incubated with 0.3 nM [^3H]Prazosin for 60 min at 25° C. Non-specific binding was estimated in the presence of 10 μM prazosin. Receptor proteins were harvested on 0.33% PEI(poly-ethylenemine) soaked GFC filter mat, the specifically bound [^3H]Prazosin were counted to determine total binding. Compounds were screened at various concentrations, using 1% DMSO as vehicle. percent inhibition of specific binding was determined. Biochemical assay results are presented as the percent Inhibition of specific binding in Table B1b, or estimated Ki values in Table B1c.
Compound,"Percentage inhibition of ligand binding, Adrenergic α2B (10 nM) [1]","Percentage inhibition of ligand binding, Adrenergic α2B (30 nM) [1]","Percentage inhibition of ligand binding, Adrenergic α2B (0.1 μM) [1]","Percentage inhibition of ligand binding, Adrenergic α2A (0.1 μM) [2]","Percentage inhibition of ligand binding, Adrenergic α2A (0.3 μM) [2]","Percentage inhibition of ligand binding, Adrenergic α1B (0.1 μM) [3]","Percentage inhibition of ligand binding, Adrenergic α1B (0.3 μM) [3]",inhibition at 0.03 µM [1],inhibition at 0.1 µM [2],inhibition at 0.1 µM [3],inhibition at 0.3 µM [2],inhibition at 0.01 µM [1],inhibition at 0.1 µM [1],inhibition at 0.3 µM [3]
"Cc1cc(F)c2c(c1)c1c(n2CC(C)(O)c2cccnc2)CC2CCCN2C1 (single isomer, unassigned) [61a]",38%,68%,88%,9%,34%,1%,18%,,,,,,,
Cc1cc(C)c2c(c1)c1c(n2CC(O)C2CCCCC2)CCN2CCCC12 (stereo not shown) [141a],,,,,,,,93%,85%,55%,,,,
"Cc1ccc2c(c1)c1c(n2CC(O)c2ccncc2)CN(C)C2CCCC12 (single isomer, unassigned) [36a]",8%,−5%,−3%,−16%,,−2%,12%,,,,-5%,,,
"Cc1cc(F)c2c(c1)c1c(n2CC(C)(O)c2cccnc2)CC2CCCN2C1 (single isomer, unassigned) [61b]",−8%,3%,28%,6%,22%,−7%,11%,,,,,,,
"Cc1ccc2c(c1)c1c(n2CC(O)c2cc[n+]([O-])cc2)CCN2CCCC12 (stereo not shown) [compound 22, 4-(1-hydroxy-2-(10-methyl-2,3,5,6-tetrahydro-1H-indolizino[7,8-b]indol-7 (11cH)-yl)ethyl)pyridine 1-oxide]",,,,,,,,61%,7%,11%,15%,30%,72%,30%
"Cc1ccc2c(c1)c1c(n2CC(C)(O)c2cccnc2)CCN(C)C1CO (single isomer, unassigned) [16a]",−1%,−14%,1%,8%,,16%,,,,,9%,,,9%

# Second part, the compound after the results:
"Percentage inhibition of ligand binding, Adrenergic α2B (10 nM) [1]","Percentage inhibition of ligand binding, Adrenergic α2B (30 nM) [1]","Percentage inhibition of ligand binding, Adrenergic α2B (0.1 μM) [1]","Percentage inhibition of ligand binding, Adrenergic α2A (0.1 μM) [2]","Percentage inhibition of ligand binding, Adrenergic α2A (0.3 μM) [2]","Percentage inhibition of ligand binding, Adrenergic α1B (0.1 μM) [3]","Percentage inhibition of ligand binding, Adrenergic α1B (0.3 μM) [3]",inhibition at 0.03 µM [1],inhibition at 0.1 µM [2],inhibition at 0.1 µM [3],inhibition at 0.3 µM [2],inhibition at 0.01 µM [1],inhibition at 0.1 µM [1],inhibition at 0.3 µM [3],Compound
14%,17%,,11%,14%,3%,15%,,,,,,,,"CC(O)(Cn1c2c(c3cc(Cl)cc(F)c31)CN1CCCC1C2)c1ccncc1 (single isomer, unassigned) [86b]"
−9%,0%,,1%,4%,7%,4%,,,,,,,,"Cc1cc(C)c2c(c1)c1c(n2CC(C)(O)c2cccnc2)CCN2CCCC12 (single isomer, unassigned) [44c]"
1%,−3%,,2%,−4%,1%,7%,,,,,,,,"Cc1cc(F)cc2c3c(n(CC(C)(O)c4ccncc4)c12)CC1CCCN1C3 (single isomer, unassigned) [78d]"
−7%,3%,,−7%,5%,−4%,1%,,,,,,,,"Cc1cc(F)c2c(c1)c1c(n2CC(C)(O)c2cccnc2)CCN2CCCC12 (single isomer, unassigned) [79d]"
−16%,−4%,,−14%,−3%,−20%,−7%,,,,,,,,"Cc1cc(Cl)c2c(c1)c1c(n2CC(C)(O)c2ccncc2)CCN2CCCC12 (single isomer, unassigned) [91c]"
,,1%,−6%,1%,−1%,27%,6%,,,,9%,,,"CC(O)(Cn1c2c(c3cc(Cl)cc(F)c31)C1CCCN1CC2)c1ccncc1 (single isomer, unassigned) [52d]"
,,,,,,,-4%,-3%,-1%,5%,-10%,-1%,1%,Cc1cc(F)cc2c3c(n(CC(C)(O)c4cccnc4)c12)CCN1CCCC31 (stereo not shown) [75b]
